# Where two headings read alike, the source gives them in different places.
# What was measured:
# CDK2/cyclin A2 = biological target: T1, CDK2/cyclin A2 (Homo sapiens, UniProt P24941); test: Human CDK2/cyclin A2 inhibitory activity (QS S Assist CDK2/Cyclin A2_FP Kit, IMAP fluorescence polarization); format: biochemical
# T1 construct: purchased Carna Biosciences, Inc. QS S Assist CDK2/Cyclin A2_FP Kit
# How it was run: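 Kinase activity read as fluorescence polarization (485/535 nm) after phosphorylated fluorescent substrate binds IMAP reagent (30 min, RT, dark). Enzyme (2.5 ng/well) reacted 60 min at RT with ATP/substrate/metal in HEPES pH 7.4 buffer with Tween 20 and DTT; no-enzyme wells define 0% activity; IC50 by curve fit.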
# CDK4/cyclin D3 = biological target: T2, CDK4/cyclin D3 (Homo sapiens, UniProt P11802); test: Human CDK4/cyclin D3 inhibitory activity (QS S Assist CDK4/Cyclin D3_FP Kit, IMAP fluorescence polarization); format: biochemical
# T2 construct: purchased Carna Biosciences, Inc. QS S Assist CDK4/Cyclin D3_FP Kit
# T2 sequence (P11802 whole entry): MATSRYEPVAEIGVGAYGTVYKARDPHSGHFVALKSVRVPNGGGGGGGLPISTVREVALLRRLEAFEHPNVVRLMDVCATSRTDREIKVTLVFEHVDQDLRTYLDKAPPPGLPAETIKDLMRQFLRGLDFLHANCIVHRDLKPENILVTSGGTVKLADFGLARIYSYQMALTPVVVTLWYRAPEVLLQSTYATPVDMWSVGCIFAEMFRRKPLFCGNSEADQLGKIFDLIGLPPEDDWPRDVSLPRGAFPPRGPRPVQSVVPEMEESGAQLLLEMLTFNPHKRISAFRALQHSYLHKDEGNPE
# T2 sequence (P30281 whole entry partner): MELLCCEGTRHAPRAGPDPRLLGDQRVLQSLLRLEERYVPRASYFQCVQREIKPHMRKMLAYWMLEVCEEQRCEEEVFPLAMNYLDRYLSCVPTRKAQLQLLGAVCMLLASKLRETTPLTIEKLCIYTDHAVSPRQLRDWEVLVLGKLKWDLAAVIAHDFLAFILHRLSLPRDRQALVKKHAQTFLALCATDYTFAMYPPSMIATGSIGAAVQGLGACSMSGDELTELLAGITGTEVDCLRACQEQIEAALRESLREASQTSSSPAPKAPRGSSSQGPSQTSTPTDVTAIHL
# How it was run: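 IMAP fluorescence polarization kit: CDK4/cyclin D3 at 12.5-25 ng/well with kit ATP/substrate/metal mix in 20 mM HEPES pH 7.4, 0.01% Tween20, 2 mM DTT, 45 min at room temperature. FP read at 485/535 nm after 30 min binding; IC50 from dose-response fit of percent inhibition versus enzyme and no-enzyme controls.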
# [1] = 50% inhibitory concentration against CDK2/cyclin A2, given as class symbol
# [2] = 50% inhibitory concentration against CDK4/cyclin D3, given as class symbol
# [3] = Human CDK2/cyclin A2 inhibitory activity, read-out: CDK2 Activity symbol
# [4] = Human CDK4/cyclin D3 inhibitory activity, read-out: CDK4 Activity symbol
IC50 (CDK2/cyclin A2; [1]) [nM],IC50 (CDK4/cyclin D3; [2]) [nM],IC50 (CDK2/cyclin A2; [3]) [nM],IC50 (CDK4/cyclin D3; [4]) [nM],SMILES
–,–,≥ 100,< 10,CC(C)Nc1nc([C@H](C)O)cc2cnc(Nc3ccc(N4CCNCC4)cn3)nc12 [Compound 17]
≥ 100,< 10,–,–,CCCNc1nc([C@@H](C)OC)cc2cnc(Nc3ccc(N4CCNCC4)cn3)nc12 [Compound 920]
–,–,≥ 100,< 10,CO[C@H](C)c1cc2cnc(Nc3ccc(CN4CCNCC4)cn3)nc2c(N[C@@H]2CCOC2)n1 [Compound 303]
≥ 100,< 10,–,–,Cc1nc(Nc2ncc3cc([C@@H](C)O)nc(NC4CCC4)c3n2)ccc1N1CCNCC1 [Compound 1094]
–,–,≥ 100,< 10,CC(C)Nc1nc(C(F)F)c(Cl)c2cnc(Nc3ccc(N4CCNCC4)cn3)nc12 [Compound 101]
–,–,≥ 100,< 10,CC(C)Nc1nc([C@@H](C)O)cc2cnc(Nc3ccc(OCC(=O)N4CCNCC4)cn3)nc12 [Compound 559]
–,–,≥ 100,< 10,CN(c1nc(C(F)F)cc2cnc(Nc3ccc(N4CCNCC4)cn3)nc12)C1CCCC1 [Compound 5]
–,–,≥ 100,< 10,COCc1cc2cnc(Nc3ccc(N4CCNCC4)cn3)nc2c(NC(C)C)n1 [Compound 44]
–,–,≥ 100,< 10,"COCC(C)(C)Nc1nc([C@@H](C)O)cc2cnc(Nc3ccc(N4CCNCC4)cn3)nc12 [Compound 195, (R)-1-(8-(l-methoxy-2-methylpropan-2-ylamino)-2-(5-(piperazin-1-yl)pyridin-2-ylamino)pyrido[3,4-d]pyrimidin-6-yl)ethanol]"
–,–,10 to 100,< 10,OCc1cc2cnc(Nc3ccc(N4CCNCC4)cn3)nc2c(NC2CCCC2)n1 [Compound 6]
–,–,≥ 100,< 10,CC(=O)c1nc(NC(C)C)c2nc(Nc3ccc(N4CCNCC4)cn3)ncc2c1C [Compound 68]
≥ 100,< 10,–,–,CO[C@H](C)c1cc2cnc(Nc3ccc(OC4CCNCC4)cn3)nc2c(N[C@H]2CCCOC2)n1 [Compound 874]
–,–,10 to 100,< 10,O[C@H]1CC[C@H](Nc2nc(C(F)F)cc3cnc(Nc4ccc(N5CCNCC5)nn4)nc23)CC1 [Compound 387]
≥ 100,< 10,–,–,C[C@@H](O)c1cc2cnc(Nc3ccc(N4CCNCC4=O)cn3)nc2c(NC2CCC(C)(C)CC2)n1 [Compound 658]

# Further lines, the compound ahead of its results:
SMILES,IC50 (CDK2/cyclin A2; [1]) [nM],IC50 (CDK4/cyclin D3; [2]) [nM],IC50 (CDK2/cyclin A2; [3]) [nM],IC50 (CDK4/cyclin D3; [4]) [nM]
N#CCN1CCN(Cc2ccc(Nc3ncc4cc(C5CCOC5)nc(N[C@H]5CCCOC5)c4n3)nc2)CC1 (stereo partly drawn) [Compound 1013],≥ 100,< 10,–,–
CC(C)Nc1nc(C(F)F)cc2cnc(Nc3ccc(CN(C)C(N)=O)cn3)nc12 [Compound 185],–,–,10 to 100,< 10
CC(C)CNc1nc([C@@H](C)O)cc2cnc(Nc3ccc(CN4CCCC(O)C4)cn3)nc12 (stereo partly drawn) [Compound 1085],≥ 100,< 10,–,–
CCC(OC)c1cc2cnc(Nc3ccc(CN4CCNCC4)cn3)nc2c(NC(C)C)n1 (stereo not drawn) [Compound 1066],≥ 100,10 to 100,–,–
"CCCNc1nc([C@@H](C)O)cc2cnc(Nc3ccc(CN4CCN(C(C)CO)CC4)cn3)nc12 (single isomer, unassigned) [Compound 1207]",≥ 100,< 10,–,–
CC(C)Nc1nc(C(F)F)cc2cnc(Nc3ccc(OCCCO)cn3)nc12 [Compound 156],–,–,≥ 100,< 10
C[C@@H](O)c1cc2cnc(Nc3ccc(O[C@H]4CC[C@H](N(C)C)CC4)cn3)nc2c(N[C@H]2CCCOC2)n1 [Compound 786],≥ 100,< 10,–,–
CCNc1nc([C@@H](C)O)cc2cnc(Nc3ccc(CN4CCN(CCCO)CC4)cn3)nc12 [Compound 1072],≥ 100,< 10,–,–
CO[C@H](C)c1cc2cnc(Nc3ccc(CN4CCC(C(C)(C)O)CC4)cn3)nc2c(NC(C)C)n1 [Compound 200],–,–,≥ 100,< 10
CC(=O)N1CCN(c2ccc(Nc3ncc4cc([C@@H](C)O)nc(NC(C)C)c4n3)nn2)CC1 [Compound 745],≥ 100,< 10,–,–
CC(C)Nc1nc(C(F)F)cc2cnc(Nc3ccc(NS(C)(=O)=O)cn3)nc12 [Compound 88],–,–,≥ 100,≥ 100
COCC(C)(C)Nc1nc([C@@H](C)O)cc2cnc(Nc3ccc(C4CCCNC4)cn3)nc12 (stereo partly drawn) [Compound 333],–,–,≥ 100,< 10
CC(C)Nc1nc(C(F)F)cc2cnc(Nc3ccc(CN(C4CCOC4)S(C)(=O)=O)cn3)nc12 (stereo not drawn) [Compound 162],–,–,≥ 100,10 to 100
CCNc1nc([C@@H](C)O)cc2cnc(Nc3ccc(CN4CCC(CO)CC4)cn3)nc12 [Compound 1147],≥ 100,< 10,–,–
CC(C)Nc1nc(C(F)F)cc2cnc(Nc3ccc(N4CCN(C)C(=O)C4)cn3)nc12 [Compound 84],–,–,10 to 100,< 10
CC(C)Nc1nc([C@@H](C)O)c(Cl)c2cnc(Nc3ccc(N4CCCNCC4=O)cn3)nc12 [Compound 750],≥ 100,< 10,–,–

SMILES,IC50 (CDK2/cyclin A2; [1]) [nM],IC50 (CDK4/cyclin D3; [2]) [nM],IC50 (CDK2/cyclin A2; [3]) [nM],IC50 (CDK4/cyclin D3; [4]) [nM]
CC(C)Nc1nc([C@@H](C)O)cc2cnc(Nc3ccc(CN4CCC(CO)CC4)cn3)nc12 [Compound 1016],≥ 100,< 10,–,–
Cc1cc(Nc2ncc3cc([C@@H](C)O)nc(NC(C)C)c3n2)ncc1N1CCNCC1=O [Compound 780],≥ 100,10 to 100,–,–
CC(C)Nc1nc(C(C)O)cc2cnc(Nc3ccc(N4CCC(N)C(F)C4)nn3)nc12 (stereo not drawn) [Compound 618],–,–,≥ 100,< 10
CC(C)Nc1nc([C@@H](C)O)cc2cnc(Nc3ccc(N4CCN(C(=O)CN(C)C)CC4)nn3)nc12 [Compound 1191],≥ 100,< 10,–,–
CC(C)Nc1nc(C2CCOC2)cc2cnc(Nc3ccc(N4CCNCC4=O)cn3)nc12 (stereo not drawn) [Compound 763],≥ 100,< 10,–,–
CC(C)Nc1nc([C@@H](C)O)cc2cnc(Nc3ccc(CC(=O)N4CCNC5(CC5)C4)cn3)nc12 [Compound 669],≥ 100,10 to 100,–,–
CC(C)Nc1nc([C@@H](C)O)cc2cnc(Nc3ccc(O[C@H]4CCNC[C@H]4F)cn3)nc12 [Compound 569],–,–,≥ 100,< 10
C[C@@H](O)c1cc2cnc(Nc3ccc(CN4CCCC(O)C4)cn3)nc2c(NC(C)(C)C)n1 (stereo partly drawn) [Compound 1127],≥ 100,< 10,–,–
CC(C)Nc1nc(C(C)O)cc2cnc(Nc3ccc(N4CCC(N(C)C)C(F)C4)nn3)nc12 (stereo not drawn) [Compound 622],–,–,≥ 100,< 10
CC(C)Nc1nc(C(F)F)cc2cnc(Nc3ncc(N4CCNCC4)cn3)nc12 [Compound 163],–,–,≥ 100,< 10
CNCCOc1ccc(Nc2ncc3cc([C@@H](C)O)nc(NC4CCC(OC)CC4)c3n2)nc1 (stereo partly drawn) [Compound 592],–,–,≥ 100,< 10
CC(C)CN1CCC(=O)N(c2ccc(Nc3ncc4cc([C@@H](C)O)nc(NC(C)C)c4n3)nc2)CC1 [Compound 632],≥ 100,< 10,–,–
C[C@@H](O)c1cc2cnc(Nc3ccc(CN4CCC(O)CC4)cn3)nc2c(N[C@H]2CC[C@H](O)CC2)n1 [Compound 1064],≥ 100,< 10,–,–
CCCNc1nc(C2(C)COC2)cc2cnc(Nc3ccc(N4CCNCC4)nn3)nc12 [Compound 945],≥ 100,< 10,–,–
CO[C@H](C)c1cc2cnc(Nc3ccc(N4CCN(C5COC5)CC4)nn3)nc2c(NC(C)C)n1 [Compound 680],≥ 100,10 to 100,–,–

# Source: patent US10124004B2, “Pyrido[3,4-d]pyrimidine derivative and pharmaceutically acceptable salt thereof” (Teijin Pharma Limited, priority 2015, dated 2018)
